The subject of one experiment is HepG-2 cells. The experiment can be described thus: Cytotoxicity test (CCK-8), hepatotoxicity. Format: cell-based. The settings on record: HepG2 cell, 72 h. As to the method:
(§1) In this example, hepatotoxicity and neurotoxicity of compound I-1 and S-duloxetine were detected.
(§2) HepG-2 and SH-SY5Y cells were placed in 10 cm dish and cultured at 37° C., 5% CO2 in a cell incubator. Trypsin was used to digest and resuspend cells and cells were counted. The cells were transferred to 96-well plate with 8000 cells in a well (100 μl/well), cultured at 37° C., 5% CO2 in a cell incubator for 24 hrs. A serial of gradient concentration dilutions of compound I-1 (prepared in example 2 of the present invention) with 2-fold dilution were prepared, and the system was 100 μL/well. The supernatant of cell culture system in the 96-well plate was removed on the first day, and fresh-prepared drug concentration system was add into culture plate wells (duplicate wells were set). The cells were cultured at 37° C., 5% CO2 in a cell incubator for 72 h. […] Microplate reader was used to measure the absorbance at 450 nm. Data was processed to calculate cytotoxicity, and IC50 was calculated by GraphPad Prism. […]
(§3) A (Dosing): the absorbance of wells containing cells, CCK-8 solution and drug solution.
(§4) A (control): the absorbance of wells containing medium and CCK-8 solution and without cells.
(§5) A (0 Dosing): the absorbance of wells containing cells and CCK-8 solution but without drug solution […]

For another experiment, the system named is SH-SY5Y cells. Put plainly: Cytotoxicity test (CCK-8), neurotoxicity. Format: cell-based. The settings on record: 72 h. As to the method: as §1, §2, §3, §4, §5
For the next experiment, the system named is C57BL/6 mice. The experiment can be described thus: Mice formalin pain model (acute and inflammatory pain). Conditions: for Licking claw time (s) in phase II (10-60 min): hydrochloride salt, blank vehicle 349.55 ± 43.09. The class given is in vivo. The source says:
150 C57BL/6 mice (male, 9-week aged) were randomly divided into 15 groups, (each group had 10 mice) for the analgesic activity test of 3 compounds in the mice formalin pain model respectively: the compound I-1 group (compound I-1 prepared in Example 2 whose hydrochloride salt was used in the experiment), the S-duloxetine group (its hydrochloride salt was used in the experiment) and the compound C1 group (the compound C1 prepared in Comparative Example 1, whose hydrochloride salt was used in the experiment). Before the start of experiments, the mice were allowed to adapt to the experimental environment for 72 h with free feeding and drinking water. The test drugs were administrated by intraperitoneal injection at a dosage as follows:
Compound I-1 group: blank vehicle (blank saline control), 0.1 mg/kg, 0.5 mg/kg, 1 mg/kg, 5 mg/kg and 10 mg/kg;
S-duloxetine group: blank vehicle (blank saline control), 1 mg/kg, 5 mg/kg, 10 mg/kg and 20 mg/kg;
Compound C1 group: blank vehicle (blank saline control), 0.1 mg/kg, 0.5 mg/kg, 1 mg/kg, 5 mg/kg and 10 mg/kg.
After administration, the mice were placed in a transparent, ventilated plexiglass cylinder for 1 h, and then 20 μl of 4% formalin solution was injected into the left hind plantar of mice of each group by microinjector, claw pain response in mice were real-time recorded by a mini-camera. The time length of licking left claw were used as an indicator of pain response, licking time in 0-10 min (phase I) and 10-60 min (phase II) were observed and recorded, and the statistical analysis was conducted. The half effective dose (ED50) of 3 compounds were calculated: ED50 referred to the dose of the drug which decreased licking time by half as compared with the blank control group. The smaller the ED50 value was, the lower the effective analgesic dose of the compound was and the better the analgesic effect was.

A further experiment concerns Sprague-Dawley rats. The experiment can be described thus: Rat hot plate pain model (acute pain). The class given is in vivo. Conditions: 30 mg/kg intraperitoneal, hydrochloride salt. The procedure:
Sprague-Dawley male, mature and unmated rats were placed at hot and cold plate (product model: PE34, US IITC) with constant 53±0.1° C. Mice with painful response such as licking claw, shaking claw or slightly jumping within 10-30 s were selected, and mice which evaded and jumped were abandoned. […] The test compound was freshly prepared on the day of administration. 0.9% NaCl physiological saline solution was prepared as solvent for later use. Appropriate amount of test compound was added into required volume of physiological saline and fully suspended, and the concentration of prepared drug was 1 mg/ml. […] After administration, the latency of heat pain was measured at 0.5 h, 1 h and 2 h after administration. In order to prevent animals from being scalded on the hot plate, the maximum incubation time was set to 30 s. Maximum possible effect (MPE) % was used to evaluate analgesic effect of each compound, i.e., MPE %=[(Post drug latency−baseline latency)/(30−baseline latency)]×100. MPE % at different time points was recorded.

A further experiment relates to ICR mice. Put plainly: Mice acetic acid writhing pain model (visceral and inflammatory pain). The settings on record: 1 h before acetic acid, saline group 49 times. The class given is in vivo. As to the method:
Male ICR mice, 22-25 g, were fasted but allowed to drink water freely for 2 h before administration. All ICR mice were weighed and grouped randomly, each group had >10 animals. […] The drug was administrated by gavage based on the weight of mice. 1.5% acetic acid solution (0.1 ml/10 g) was injected intraperitoneally 1 h after administration, and the number of times of visceral pain in each group was observed within 30 min. When concave abdomen, stretched trunk and hind claw, and high buttocks appeared, one number point was recorded. Finally, the number of appearance of the above phenomenon was counted within 30 minutes.
On the technique in general: An intraperitoneal irritant provokes the stretching counted in writhing tests.

Another experiment relates to SD rats. The experiment can be described thus: Rat SNL model, mechanical allodynia test (nerve pain). The class given is in vivo. The settings on record: 1 h after administration, 10 mg/kg oral, hydrochloride salt; control group 3.967 ± 0.775.

One may read the IC50 as the concentration at which inhibition is half-maximal.

Protocol for SD rats: Male SPF grade SD rats, weighed 150 g-180 g, were selected. Aseptic operation during surgery was performed. The animals were anesthetized with sodium pentobarbital (50 mg/kg, intraperitoneal injection). The surgical area of animal waist was shaved and the skin was disinfected three times with iodophor and 70% ethanol. After the skin was dried, the operation was started. Surgical knife was used to make a longitudinal incision at the back of the sacrum of the animal waist to expose the left paraspinal muscles, and stretcher was used to separate muscle tissue to expose the spine. The left spinal nerves L5 and L6 were separated and ligated with a 6-0 silk thread, and the wound was sutured. After the operation, the animals were placed on electrothermal pad, and 5 mL of saline was injected subcutaneously to prevent dehydration. After the animals were fully awakened and could move around freely, the animals were put back in the cage.
After the operation, the animals were adapted in the experimental environment for 15min/day for 3 days.
The animals were weighed to calculate the dose. […] After administration, mechanical allodynia test was performed. The rat was individually placed in a plexiglass box with a grid on the bottom of the box to ensure that the rat claw could be tested. The rats were allowed to adapt the environment for 15 min before test. After the adaptation was completed, the test fiber was used to test the center of the left hind claw of the rat. The test fiber comprises 8 test strengths: 3.61 (0.4 g), 3.84 (0.6 g), 4.08 (1 g), 4.31 (2 g), 4.56 (4 g), 4.74 (6 g), 4.93 (8 g), and 5.18 (15 g). […] During the test, rapid withdrawal of animal claw was recorded as pain response. When the test fiber was removed from animal skin, the withdrawal of animal claw was also recorded as pain response. If animal moved, the pain response was not recorded, and the test was repeated. […]
Mechanical allodynia was expressed as withdrawal threshold (PWT) in rat behavioral test, which was calculated with the following formula: […]

For `CNCC[C@H](Oc1cccc2ccccc12)c1cccs1` [S-duloxetine], the half-inhibitory concentration (IC50) was found to be 33.3 µM in the experiment with HepG-2 cells and 28.6 µM in the experiment with SH-SY5Y cells. The “Licking claw time (s) in phase II (10-60 min)” value is on record as 259.97 ± 64.44 s in the experiment with C57BL/6 mice (1 mg/kg intraperitoneal), 230.49 ± 41.31 s in the experiment on C57BL/6 mice (5 mg/kg intraperitoneal), 162.83 ± 36.27 s in the experiment with C57BL/6 mice (10 mg/kg intraperitoneal) and 72.27 ± 17.29 s in the experiment on C57BL/6 mice (20 mg/kg intraperitoneal). In addition, in the experiment on C57BL/6 mice (intraperitoneal, dose that decreases licking time by half vs blank control), the “ED50 in phase II pain” value was determined as 8.00 mg/kg. Also, the MPE % in the experiment on Sprague-Dawley rats (0.5 h after administration) is given as 5.75 ± 5.74%; with Sprague-Dawley rats (1 h after administration), 7.44 ± 5.12%; in the experiment with Sprague-Dawley rats (2 h after administration), 13.53 ± 4.99%. Besides, the “number of appearance of writhing reactions (visceral pain) within 30 min” value in the experiment with ICR mice (10 mg/kg by gavage) came out at 27 times; in the experiment on ICR mice (20 mg/kg by gavage), 21 times. The “PWT(g), claw withdrawal threshold” value in the experiment on SD rats came out at 6.519 ± 2.226 g.

These data come from patent publication US20250042884A1, “3-ARYLOXYL-3-FIVE-MEMBERED HETEROARYL PROPYLAMINE COMPOUND AND USE THEREOF” (Shanghai Leado Pharmatech Co. Ltd., priority 2018, published 2025).
